Measurements taken from US6391921B1 (priority 2000, dated 2002).

Key:
RBL-2H3 mast cells = assay: IgE receptor/FcεRI-mediated mast cell degranulation (β-hexosaminidase release); assay type: cell-based, rat
Experimental: Monolayers of RBL-2H3 rat mast cells were sensitized with monoclonal anti-DNP IgE antibody (0.24 mg/ml) for 1 hour at 37° C. in a 48-well tissue culture plate. Unbound IgE was removed by washing the cells with phosphate buffered saline. After washing, PIPES-buffered saline containing 1 mM calcium chloride was added to the monolayers of the RBL-2H3 cells. The cells were challenged with 20 ng/ml DNP-BSA for 30 minutes at 37° C. The plate was centrifuged at 200 g for 10 minutes at 4° C. and supernatants were saved. […]
To study the effects of compound D-58, RBL-2H3 cells were incubated with compound D-58 at the indicated concentrations or vehicle for 1 hour prior to antigen challenge. Mast cell degranulation (β-hexosaminidase release, % of total) was assessed by measuring the β-hexosaminidase levels in cell free supernatants and Triton X-100 solubilized pellets using the formula: β-hexosaminidase release, % of total=100×(β-hexosaminidase level in supernatant/β-hexosaminidase level in supernatant+solubilized pellet). […]
In order to examine the effects of compound D-58 on IgE receptor/FcεRI-mediated mast cell activation and mediator release, RBL-2H3 mast cells were exposed to increasing concentrations of this ethanone or vehicle prior to challenge with antigen (DNP-BSA). […] Mast cell β-hexosaminidase release (FIG. 3A) and LTC4 release (FIG. 3B) were measured. […]

RBL-2H3 cells = assay: Mast cell viability by trypan blue dye exclusion; assay type: cell-based, rat; details: 300 μM, 2 hour treatment at 37° C.
Description: The viability of compound D-58-treated mast cells ranged from 91 to 92%. […] Stimulation of RBL-2H3 mast cells using IgE/antigen as a stimulus induced the release of significant amounts of preformed granule-associated β-hexosaminidase (47.2±7.9% of total cellular content) as well as newly synthesized LTC4 (5.8±1.8 pg/10^6 cells).

Balb/c mice = assay: Carrageenan air pouch model of acute inflammation, PGE2 release in vivo; details: 50 mg/kg i.p. twice before carrageenan challenge; 4 hours after challenge; FIG. 6
Experimental: The effects of compound D-58 on PGE2 release in vivo were examined using a well characterized air pouch mouse model of acute inflammation (ref 36). An acute inflammatory response was induced in the air pouches of mice by the injection of carrageenan, a sulfated polysaccharide obtained from the alga Chondrus crispus (ref 36).
Balb/c (6-8 weeks old male) mice were utilized for these experiments. To create an air pouch, mice were injected with 3 ml sterile air subcutaneously using a 30 gauge needle on days 0 and 3 as described previously (refs 30 and 31). Six days after the initial injection of air, mice were injected with 2 ml of 1% carrageenan into the subcutaneous air pouch.
In order to study the effect of compound D-58, a group of mice was injected with the drug i.p. 60 minutes and 30 minutes before the carrageenan challenge. Control mice were treated with vehicle alone. After 4 hours of challenge with carrageenan, mice were sacrificed and the contents of the air pouches were harvested by lavage with 2 ml cold saline. The recovered fluids were centrifuged at 250×g for 15 minutes at 4° C. Supernatants were saved at −80° C. for the estimation the of prostaglandin E2 contents. […]
The data points represent the mean±SEM values (n=4-5 mice). *p<0.05 compared to vehicle-treated controls was determined by Student's t test.

Structure (SMILES): COc1ccc(CC(=O)c2c(O)cc(O)cc2O)cc1 [Compound D-58]
- IgE/antigen induced mast cell degranulation (β-hexosaminidase) (RBL-2H3 mast cells; 1 hour prior to DNP-BSA challenge, FIG. 3A): inhibited
- mediator release induced by compound alone (RBL-2H3 mast cells; incubation without antigen challenge (data not shown)): did not induce mediator release
- effect on viability of RBL-2H3 cells (RBL-2H3 cells): did not affect the viability
- decrease of PGE2 release into the air pouch (Balb/c mice): approximately 50%
